Results: a melting point compilation (Tetko et al.; mined from patent text by program, amines drawn as free bases though some values may be those of a salt)

Row | melting point [°C] | Compound
1 | 205 | CN1C(=O)CC(c2ccc(CO)cc2)C1C(O)c1ccc(-c2ccccc2)s1 (configuration not stated)
2 | 203 | CCc1nc2cc(C(F)(F)F)c(Cl)cc2n1-c1ccc(CCOC(=O)NS(=O)(=O)c2cccc3c(N(C)C)cccc23)cc1
3 | 158 to 160 | CCCCCC(=O)Nc1nc2cc(Cl)ccc2nc1NC(=O)CC
4 | 80 to 82 | CN1CCC[C@H]1c1cnc(Cl)cc1C(O)c1cc(Cl)ncc1[C@@H]1CCCN1C
5 | 87 to 89 | COc1ccccc1N1CCN(CCCCN2CCN(c3cccc(Cl)c3)C2=O)CC1
6 | > 280 | CNc1c(F)cc2c(=O)c(C(=O)O)cn(-c3ccc(F)c(O)c3)c2c1Cl
7 | 147 to 149 | O=C(c1cccc(Cl)c1)N1CCCN(CC2=Nc3cccc4c(=O)[nH]nc(c34)N2)CC1
8 | 111 to 112 | CC(C)n1nc(O)nc1N(C)C
9 | 258 to 260 | CCCN1C(=O)CC(C)(C)c2cc(C)c(-c3cc(C=C4SC(=O)NC4=O)ccc3N(C)C)cc21
10 | > 106 | CCCCc1nn(Cc2ccccc2C(=O)O)c(=O)n1Cc1ccc(-c2ccccc2-c2nnn[nH]2)cc1
11 | 148 | CCN(CC)CC1CN=C(NC(=O)Nc2ccccc2)O1 (configuration not stated)
12 | 176 to 178 | CCCOc1ccccc1-c1ccc(C(N)=O)c(=O)[nH]1
13 | 157 to 160 | CC(=O)Nc1ccc2c(c1)C(=O)C(Br)CCO2 (configuration not stated)
14 | 152 to 153 | O=C(O)CSc1c(C(=O)O)[nH]c2cc(Cl)cc(Cl)c12
15 | 154 | COc1cc2c(c(C(=O)c3ccccc3)c1)NC(=O)C2
16 | 158 to 160 | CCOC(=O)CNC(=O)c1nc2ccc(NCCCN3CCC(OC(c4ccccc4)c4ccccc4)CC3)nn2c1C
17 | 147 to 148 | CCOC(=O)N[C@@H]1c2cc(C#N)ccc2OC(C)(C)[C@H]1O (relative stereo)
18 | 145 to 146 | CCCc1c(C(=O)NCc2ccc3cc(OCC(=O)OC)ccc3c2)cnn1-c1ccccc1
19 | 215 to 217 | C=CCOC(=O)C1=C(C)NC(C)=C(C(=O)OC)C1c1cccc([N+](=O)[O-])c1 (single isomer, unassigned; (-))
20 | 226 | CC(C)(C)OC(=O)N1CCC(C2=C(C#N)C(c3cccc4nonc34)c3c[nH]nc3N2)CC1 (configuration not stated)
21 | 137 to 138 | COCN1NC(=O)N(C)C1c1ccccc1-c1ccc(CBr)cc1 (configuration not stated)
22 | 148 to 150 | Cc1ccc(S(=O)(=O)N2CCCCC2)cc1
23 | 225 to 227 | CS(=O)(=O)Nc1ccc(N2CCN(c3cc(N)ccn3)CC2)cc1
24 | 107 to 108 | COc1ccc(C2CN(c3cc(C)c4c(c3C)CC(C)(C)O4)CCO2)cc1 (configuration not stated)
25 | 102 to 105 | CC(C)C(C)NC1=Nc2ccc(Cl)cc2S(=O)(=O)N1C (configuration not stated)

Row | melting point [°C] | Compound
26 | 153 to 154 | COC(=O)CCc1cc(C(CC(C)C)NC(=O)Cc2ccc(NC(=O)Nc3ccccc3C)cc2)no1 (configuration not stated)
27 | 122 | COc1cc(-c2cc(C3CCOC3)no2)cc2oc(=O)c(C)c(C)c12 (configuration not stated)
28 | 132 | CSC1C(OC(C)=O)C(COC(C)=O)OC1n1ccc(=O)[nH]c1=O (configuration not stated)
29 | 165 to 167 | CC(C)c1cc(Oc2ccc(Cl)cc2)nc(C(C)C)c1NC(=S)NC(C)(C)C
30 | 169 to 171 | CS(=O)(=O)c1ccc(-c2[nH]nc(C(=O)CCCO)c2-c2ccc(C#N)cc2)cc1
31 | > 300 | CC(C)NC1=NS(=O)(=O)c2ccc(S(C)(=O)=O)cc2N1
32 | 119 to 122 | CN(C(=O)OC(C)(C)C)c1sc(-c2cccnc2)nc1Cl
33 | 254 to 255 | COc1ccc(NC(C)=C(C#N)C#N)cc1
34 | 82 | COC(=O)N(C)CCCCC(=O)OC[C@@H]1CC(c2ccc(-c3ccc(N4C[C@H](Cn5ccnn5)OC4=O)cc3F)cn2)=NO1
35 | 276 to 278 | O=C1c2c(c(=O)n3nc(-c4ccccc4)cc3n2Cc2ccccc2)CN1C1CCCCC1
36 | 133 | O=C(c1ccccc1)n1c(=O)n(C2CCN(CCCN3c4cccc5cccc(c45)S3(=O)=O)CC2)c2ccccc21
37 | 189 to 191 | CC(C)(C)c1cc(-c2noc(=O)[nH]2)cc(C(C)(C)C)c1O
38 | 120 to 122 | Cc1oc(-c2cccs2)nc1CCOc1ccc(N)cn1
39 | 149 to 150 | Cc1ccccc1C(=O)c1ccc(Nc2ccccc2NC(=O)CO)cc1F
40 | 136 to 138 | CCNC(=O)CNC(=S)c1cccnc1
41 | 81 | C=CCNc1nc2c(c(N3CCN(C)CC3)n1)CCCN2CC=C
42 | 170 to 172 | O=C(O)COc1ccc(SCCc2ccc(-c3ccc(C(F)(F)F)cc3)cc2)c2c1CCC2
43 | 196 to 198 | COc1ccc(C(=O)N2CCN(c3ccc([N+](=O)[O-])c(C=O)c3)CC2)cc1OC
44 | 96 to 97 | Cc1nnc(-c2ccc3occ(-c4ccc(SC(C)C)cc4)c3c2)o1
45 | 78 | COC(=O)c1csc(C)c1N
46 | 159 to 161 | NC(=O)c1nnn(C2OC(CO)C(O)C2O)c1N (configuration not stated)
47 | 99 to 101 | C=CCN(NC(=O)c1ccc(Cl)c(S(N)(=O)=O)c1)c1ccccc1
48 | 57 to 61 | CNc1nc(F)c(OC(F)F)c(Cl)n1
49 | 254 | Cn1cc(C(=O)O)c(=O)c2cc3cc(F)c(N4CCNC(c5cccc(F)c5)C4)cc3nc21 (racemic)
50 | 98 | Cc1cc(C2=NOC(C)(c3cc(Cl)cc(Cl)c3)C2)ccc1C(=O)NCC(O)CO (configuration not stated)

Row | melting point [°C] | Compound
51 | 256 to 257 | COc1c(-c2ccc3cc(NS(C)(=O)=O)ccc3c2)cc(-n2ccc(=O)[nH]c2=O)cc1C(C)(C)CO
52 | 134 to 136 | COc1c(Br)cc(C2CC=CCC2[N+](=O)[O-])c(OC)c1OC (configuration not stated)
53 | > 250 | Cn1ccnc1-c1ccc(C(=O)CN=[N+]=[N-])cc1
54 | > 215 | Cc1ccc(Cl)c(Nc2ccccc2-c2nnc(NC#N)o2)c1Cl
55 | 155 to 157 | O=Cc1cc2cc3c(cc2nc1I)OCCO3
56 | 191 to 193 | CC(C)(NC(=O)c1nnc2ccc(NCCCN3CCC(OC(c4ccccc4)c4ccccc4)CC3)nn12)C(=O)O
57 | 171 to 173 | CC(c1oc2ccccc2c(=O)c1-c1cccc(F)c1)n1nc(C#CCO)c2c(N)ncnc21 (configuration not stated)
58 | 209 to 210 | CC(C)N1C(=O)C(NC(=O)CCC2CCCCC2)N=C(N(C)C)c2ccccc21 (configuration not stated)
59 | 149 to 155 | CN(C)CCOc1ccc(C(=C(c2ccccc2)C(F)(F)F)c2ccc(O)cc2)cc1
60 | 153 | O=C(c1ccccc1)N1CCN(CC(O)Cn2c3ccccc3c3ccccc32)CC1 (configuration not stated)
61 | 102 to 105 | CN(C)C=CC(=O)c1cccnn1
62 | 225 to 227 | Cc1c[nH]c2c(/C=C/C#N)cccc12
63 | 96 to 98 | COC(=O)c1c(Cl)cc(Cl)cc1NC(=O)CSc1ccc(NCc2ccc(Cl)cc2)cc1
64 | 176 to 178 | CNC(=O)C(C)Oc1ncn(-c2ccc(Br)cc2)n1 (configuration not stated)
65 | 201 to 203 | COc1ccc(CNc2nc(OCc3ccccn3)ncc2C(=O)O)cc1Cl
66 | 66 to 68 | COCc1ccc(/C=C/c2c(OC)cc3c(c2OC)C(C)(C)CCC3(C)C)cc1
67 | 125 to 126 | COc1ccc2c(c1)CCC1C2C(O)CC2(C)C1CC1OCCOC12 (configuration not stated)
68 | 126 to 129 | COc1cccc([C@H]2O[C@H](CC(=O)NCCc3occc3C(=O)O)C(=O)N(CC(C)(C)CO)c3ccc(Cl)cc32)c1OC
69 | 95 to 96 | O=C(Cc1cc(OC(=O)c2ccccc2)no1)OC(c1ccccc1)c1ccccc1
70 | 77 to 78 | CC(CCCCCCCCCCCCC(=O)O)CC(=O)O (configuration not stated)
71 | 144 to 145 | COC(=O)c1ccc(O)c(C(C)(C)C)c1
72 | 82 to 94 | CCOCCn1c(N2CCCN(CCC3(c4ccccc4)CCN(C(=O)c4cc(OC)c(OC)c(OC)c4)C3)CC2)nc2ccccc21 (configuration not stated)
73 | 74.5 to 76 | CC(C)(CCCCCCC(=O)CCCCCCC(C)(C)C(=O)O)C(=O)O
74 | 88 to 90 | CC(=O)NC(=O)CCCCBr
75 | 100 | CCOC(=O)c1ccc(-n2ccnc2)cc1

Row | melting point [°C] | Compound
76 | 79 to 83 | CC1(C)Cc2ccc(C(F)(F)F)c(C#N)c2O1
77 | 188 to 190 | CNC(=S)NCc1nc(C(C)C)c(Sc2cc(Cl)cc(Cl)c2)n1C
78 | 85 | CC(C)=CC#Cc1cc(C)cc(Oc2cc(C(F)(F)F)nn2C)n1
79 | 124 to 126 | CS(=O)c1ccc(-c2ccc(C=C(Cl)Cl)s2)cc1 (configuration not stated)
80 | 52 to 54 | CNC(=Nc1cccc(C(F)(F)F)c1)C(C)C
81 | 130 to 132 | CC(C)c1cc(C(C)C)c(C(F)C(=O)c2ccc(C(C)C)c(OS(N)(=O)=O)c2C(C)C)c(C(C)C)c1 (configuration not stated)
82 | 171 to 172 | CCOc1c(OC)cc(C(=O)N2CCN(C(=O)C3=Cc4cc(OC)c(OC)cc4CCC3)CC2)cc1OC
83 | 210 to 212 | CC(C)(O)c1ccc(-c2cnc3c(n2)N(CCC2CCOCC2)CC(=O)N3)cc1
84 | 154 to 155 | COc1cc(N2CCN(Cc3ccccc3)CC2)c2nccc(C)c2c1
85 | 119 to 120 | CCCCc1cc(=O)c(C(=O)OCC)cn1Cc1ccc(-c2ccccc2-c2nnn[nH]2)cc1
86 | 190 | Fc1ccc(-c2cc(C(F)(F)F)n3ncc(-c4cccnc4)c3n2)cc1Cl
87 | 235 to 237 | Cc1nc(-n2ccc(-c3ccccc3)cc2=O)sc1C(=O)NCc1ccccc1
88 | 104 to 106 | CCC(=O)c1ccc(CN2C(=O)c3ccccc3C2=O)s1
89 | 150 to 152 | COC(=O)CNC(=O)c1ccc(C(=O)NS(=O)(=O)c2ccc(OC)cc2)cn1
90 | 168 to 171 | CC(=O)OCc1ccc2oc(=O)c(C(=O)Oc3cc(Cl)ccc3Cl)cc2c1
91 | 160 | COc1ccc2c(c1)N(C(C)=O)C1=C(S2)C(S(C)(=O)=O)=CCC1=O
92 | 75 to 77 | COC(=O)c1cc(Cl)cc(Cl)n1
93 | 89 | O=S(=O)(CC1(c2ccccc2)CO1)c1ccccc1 (configuration not stated)
94 | 140 to 142 | Cc1ccc(-c2[nH]c(-c3cccnc3)nc2C(=O)O)cc1
95 | 58 to 62 | COc1cc(C)c2c(c1OC)CCCC2=O
96 | 211 | COC(=O)C1=C(C)NC(N)=C(C(=O)OC(C)C)C1c1ccccc1C#N (configuration not stated)
97 | 59 to 61 | COC(=O)CSC(C)c1ccc(-c2ccc(OC)cc2)cc1 (configuration not stated)
